Measurements from patent US20250206717A1, “COMPOUND HAVING ANTI-TUMOR ACTIVITY AND USE THEREOF” (Innovstone Therapeutics Limited, priority 2021, published 2025).
Counter-ions that a name gives are not always drawn.

Legend:
PRMT5 = PRMT5 (Homo sapiens (Human), UniProt O14744); assay: Inhibitory activity against PRMT5 enzyme activity ([3H]-SAM FlashPlate assay); format: biochemical; conditions: PRMT5 5 nM, [3H]-SAM 0.3 μM, polypeptide substrate 100 nM; read-out: measured enzyme inhibitory IC50 value (PRMT5 enzyme activity)
[1] = test system: human B-cell non-Hodgkin lymphoma Z-138 cells; assay: Growth inhibitory activity on Z-138 cells (CellTiter-Glo, 5 days); format: cell-based; conditions: 5 days (120H), read-out: measured cell growth inhibitory IC50 value (Z-138 cell growth)
Method: Vi-Cell XR cell counter, Beckmancoulter.
Cells were revived and cultured in an incubator at 37° C./5% CO2 according to the above-mentioned culturing conditions.
Periodical passaging was performed, and cell lines with good growth status in about two generations were taken for plating.
I. Cells were taken from the incubator. The cell suspension was transferred to a 50 mL centrifuge tube, and centrifuged at
800-1000 rpm for 3-5 minutes. The supernatant was discarded. An appropriate volume of culture medium was added to the centrifuge tube and gently beated to resuspend the cells evenly. Cells were counted using a Vi-Cell XR cell counter.
II. According to the measured cell density, the cell suspension was adjusted to an appropriate concentration.
III. The cell suspension was added into the 384-well plate, 40 μL/well, containing 700 cells/well, and an equal volume of culture medium without cells was added to the blank control well.
I. A compound was dissolved in 100% DMSO to formulate a 10 mM stock solution.
II. The stock solution with a concentration of 10 mM was taken, diluted with DMSO to a 2 mM solution, which was used as the starting concentration to perform a 4× gradient dilution with DMSO for 9 points.
III. 200 nL of the above compound solutions in gradient concentrations were taken and added to each well respectively.
To the blank control well and the DMSO control well were respectively added 200 nL DMSO solutions, and the final concentration of DMSO was 0.5%.
IV. The cell plate was incubated in a carbon dioxide incubator for 5 days (120H).
I. CellTiter-Glo buffer was thawed and allowed to come to room temperature.
II. A lyophilized CellTiter-Glo substrate was allowed to come to room temperature.
III. CellTiter-Glo buffer was added to a bottle of CellTiter-Glo substrate to dissolve the substrate to formulate a CellTiter-Glo working solution.
IV. The working solution was slowly vortexed to fully dissolve the contents.
V. The cell culture plate was taken and allowed to equilibrate to room temperature.
VI. […] of a mixed CellTiter Glo reagent was added to each well, oscillated for 10 minutes in the dark, and incubated for 10 minutes.
The inhibition rates (IRs) of the detected compounds were calculated according to the following formula:
IR (%)=(1−(RLUcompound−RLUblank control)/(RLUDMSO−RLUblank control)*100%,
XLFit was used to plot the efficacy inhibition rate curve, and the IC50 value was calculated using the following 4-parameter model: [fit=(A±((B−A)/(1+((C/x)^D))))].

[2] = test system: Xenograft models of small cell lung cancer (SCLC), non-small cell lung cancer (NSCLC), acute myeloid leukemia (AML) and non-Hodgkin's lymphoma; conditions: cited from earlier work
[3] = Phase I, adult patients with solid tumors; cited from earlier work

Sequence of PRMT5 (O14744 2-637): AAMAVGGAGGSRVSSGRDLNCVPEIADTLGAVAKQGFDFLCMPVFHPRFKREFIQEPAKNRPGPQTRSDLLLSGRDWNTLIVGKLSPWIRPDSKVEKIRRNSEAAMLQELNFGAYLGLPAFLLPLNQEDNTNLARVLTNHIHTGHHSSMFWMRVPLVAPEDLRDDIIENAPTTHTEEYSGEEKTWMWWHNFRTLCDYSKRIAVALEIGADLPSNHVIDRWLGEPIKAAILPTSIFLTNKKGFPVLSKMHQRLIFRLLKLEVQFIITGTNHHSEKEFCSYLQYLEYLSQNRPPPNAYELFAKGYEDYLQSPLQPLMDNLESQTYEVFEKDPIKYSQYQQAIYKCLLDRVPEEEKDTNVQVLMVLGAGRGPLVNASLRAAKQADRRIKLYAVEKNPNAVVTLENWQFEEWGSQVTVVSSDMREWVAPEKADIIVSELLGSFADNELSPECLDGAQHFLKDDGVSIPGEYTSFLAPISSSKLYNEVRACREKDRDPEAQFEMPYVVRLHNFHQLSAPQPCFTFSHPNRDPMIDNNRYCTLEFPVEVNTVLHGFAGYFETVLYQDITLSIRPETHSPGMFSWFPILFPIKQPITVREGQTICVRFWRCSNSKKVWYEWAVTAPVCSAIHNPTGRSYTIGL
Sequence of PRMT5 (Q9BQA1 2-342 partner): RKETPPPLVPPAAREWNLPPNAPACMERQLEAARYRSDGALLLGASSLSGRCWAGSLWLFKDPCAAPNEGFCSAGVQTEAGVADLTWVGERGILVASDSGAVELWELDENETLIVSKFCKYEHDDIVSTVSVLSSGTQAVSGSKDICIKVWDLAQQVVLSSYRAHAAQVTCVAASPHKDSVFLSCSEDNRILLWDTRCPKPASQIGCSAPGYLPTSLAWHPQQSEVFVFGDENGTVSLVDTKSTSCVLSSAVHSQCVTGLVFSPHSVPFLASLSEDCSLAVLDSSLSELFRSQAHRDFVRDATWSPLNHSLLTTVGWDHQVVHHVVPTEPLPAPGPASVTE

SMILES | IC50 (PRMT5) [µM] | IC50 [1] [µM] | also measured
CC(=O)N1CCC(Nc2cc(C(=O)N3CC[C@@H](N4CCc5ccccc5C4)[C@H](O)C3)nc(C)n2)CC1 [Control Example 2, 1-(4-((6-((3R,4R)-4-(3,4-dihydroisoquinoline-2(1H)-yl)-3-hydroxypiperidine-1-carbonyl)-2-methylpyrimidine-4-yl)amino)piperidine-1-yl)ethanone] | 0.036 |  | 
O=C(c1ccc(C(F)(F)F)cc1)N1CCC(Nc2cc(C(=O)N3CC[C@@H](N4CCc5ccccc5C4)[C@H](O)C3)ncn2)CC1 [Example 153] | 0.00697 | 0.0138 | 
CC(=O)N1CCC(Nc2cc(C(=O)N3CC[C@H](N4CCc5ccccc5C4)[C@@H](O)C3)nc(-c3ccccc3F)n2)CC1 [Example 12] | 0.0352 |  | 
Nc1nc2cc(CC[C@H]3C[C@@H](n4ccc5c(N)ncnc54)[C@H](O)[C@@H]3O)ccc2cc1Br [JNJ-64619178] |  |  | tumor growth inhibition [2]: up to 99%
CC(=O)N1CCC(Nc2nc(C(=O)N3CC[C@@H](N4CCc5ccccc5C4)[C@H](O)C3)nc(-c3ccccc3)n2)CC1 [Example 70] | 0.0664 |  | 
O=C(c1ccccc1)N1CCC(Nc2cc(C(=O)N3CC[C@@H](N4CCc5ccccc5C4)[C@H](O)C3)ncn2)CC1 [Example 158] |  | 0.019 | 
CC(=O)N1CC(Nc2cc(C(=O)N3CC[C@@H](N4CCc5ccccc5C4)[C@H](O)C3)nc(-c3ccccc3)n2)C1 [Example 39] |  | 0.135 | 
C=Cc1nc(NC2CCN(C(C)=O)CC2)cc(C(=O)N2CC[C@@H](N3CCc4ccccc4C3)[C@H](O)C2)n1 [Example 46] | 0.0291 |  | 
CC(=O)N1CCC(Nc2cc(C(=O)N3CC[C@@H](N4CCc5ccccc5C4)[C@H](O)C3)nc(C(=O)N(C)C)n2)CC1 [Example 59] | 0.107 |  | 
O=C(c1cc(NC2CCCCC2)nc(-c2ccccc2)n1)N1CC[C@@H](N2CCc3ccccc3C2)[C@H](O)C1 [Example 37] | 0.0998 |  | 
CC(=O)N1CCC(Nc2cc(C(=O)N3CC[C@@H](N4CCc5ccccc5C4)[C@H](O)C3)nc(-c3cc4ccccc4s3)n2)CC1 [Example 66] |  | 1.36 | 
CC(=O)N1CCC(Oc2cc(C(=O)N3CC[C@H](N4CCc5ccccc5C4)[C@@H](O)C3)ncn2)CC1 (relative stereo) [Example 1, trans-1-(4-((6-(4-(3,4-dihydroisoquinoline-2(1H)-yl)-3-hydroxypiperidine-1-carbonyl)pyrimidine-4-yl)oxy)piperidine-1-yl)ethane-1-one] | 0.065 |  | 
COCCCCNc1cc(C(=O)N2CC[C@@H](N3CCc4ccccc4C3)[C@H](O)C2)nc(-c2ccccc2)n1 (stereo in doubt) [Example 45] |  | 1.32 | 
CC(=O)N1CCC(Nc2cc(C(=O)N3CC[C@H](N4CCc5ccccc5C4)[C@@H](O)C3)nc(-n3ccnc3)n2)CC1 [Example 73] | 0.11 |  | 
CC(=O)N1CCC(Nc2cc(C(=O)NC[C@H](O)CN3CCc4ccccc4C3)ncn2)CC1 [GSK3326595] |  |  | PK in plasma [3]: dose-dependent

Continued, in another order:

IC50 (PRMT5) [µM] | IC50 [1] [µM] | SMILES | also measured
0.0052 | 0.008 | CCC(CC)Oc1nc(NC2CCN(C(=O)c3ccccc3)CC2)cc(C(=O)N2CC[C@@H](N3CCc4ccccc4C3)[C@H](O)C2)n1 [Example 202] | 
 | 0.0605 | CC(C)Oc1nc(NC2CCN(C(=O)c3ccn(C)n3)CC2)cc(C(=O)N2CC[C@@H](N3CCc4ccccc4C3)[C@H](O)C2)n1 [Example 217] | 
0.0079 | 0.016 | [2H]C1([2H])CN([C@@H]2CCN(C(=O)c3cc(NC4CCN(C(=O)c5ccccc5)CC4)nc(OC(C)C)n3)C[C@H]2O)Cc2ccccc21 [Example 401, (6-((1-(benzoyl)piperidine-4-yl)amino)-2-isopropoxypyrimidine-4-yl)((3R,4R)-4-(3,4-dihydroisoquinoline-2(1H)-yl-4,4-d2)-3-hydroxypiperidine-1-1)methanone] | 
0.0039 | 0.012 | CC(C)Oc1nc(NC2CCN(C(=O)c3cccs3)CC2)cc(C(=O)N2CC[C@@H](N3CCc4ccccc4C3)[C@H](O)C2)n1 [Example 207] | 
0.0028 | 0.0123 | COc1nc(NC2CCN(C(=O)c3ccc(C)cc3)CC2)cc(C(=O)N2CC[C@@H](N3CCc4ccccc4C3)[C@H](O)C2)n1 [Example 392, ((3R,4R)-4-(3,4-dihydroisoquinoline-2(1H)-yl)-3-hydroxypiperidine-1-yl)(2-methoxy-6-((1-(4-methylbenzoyl)piperidine-4-yl)amino)pyrimidine-4-yl)methanone hydrochloride] | 
0.0045 |  | CC(C)COc1nc(NC2CCN(C(=O)c3cnn(C)c3)CC2)cc(C(=O)N2CC[C@@H](N3CCc4ccccc4C3)[C@H](O)C2)n1 [Example 213] | 
0.0205 |  | O=C(c1cccc(F)c1)N1CCC(Nc2cc(C(=O)N3CC[C@@H](N4CCc5ccccc5C4)[C@H](O)C3)ncn2)CC1 [Example 172] | 
 | 0.111 | CC(=O)N1CCC(Nc2cc(OC3CCCC3)nc(C(=O)N3CC[C@@H](N4CCc5ccccc5C4)[C@H](O)C3)c2)CC1 [Example 276] | 
 | 0.157 | Cn1cc(N2CCC(Nc3cc(C(=O)N4CC[C@@H](N5CCc6ccccc6C5)[C@H](O)C4)nc(OC4CCCC4)n3)CC2)cn1 [Example 215] | 
 | 0.0628 | O=C(c1ccncn1)N1CCC(Nc2cc(C(=O)N3CC[C@@H](N4CCc5ccccc5C4)[C@H](O)C3)ncn2)CC1 [Example 170] | 
 | 0.0222 | CC(C)COc1nc(NC2CCN(C(=O)c3ccn(C)n3)CC2)cc(C(=O)N2CC[C@@H](N3CCc4ccccc4C3)[C@H](O)C2)n1 [Example 212] | 
0.0513 |  | O=C(c1ccccn1)N1CCC(Nc2cc(C(=O)N3CC[C@@H](N4CCc5ccccc5C4)[C@H](O)C3)ncn2)CC1 [Example 173] | 
 | 0.0058 | CCC(CC)Oc1nc(NC2CCN(C(=O)c3cnn(C)c3)CC2)cc(C(=O)N2CC[C@@H](N3CCc4ccccc4C3)[C@H](O)C2)n1 [Example 243] | 
 | 0.0074 | Cn1cc(C(=O)N2CCC(Nc3cc(C(=O)N4CC[C@@H](N5CCc6ccccc6C5)[C@H](O)C4)nc(SC4CCCC4)n3)CC2)cn1 [Example 253] | 
0.0047 |  | Cc1ccc(C(=O)N2CCC(Nc3cc(C(=O)N4CC[C@@H](N5CCc6ccccc6C5)[C@H](O)C4)nc(N4CCCC4)n3)CC2)cc1 [Example 315] | 
0.0064 |  | Cn1cc(C(=O)N2CCC(Nc3cc(C(=O)N4CC[C@@H](N5CCc6ccccc6C5)[C@H](O)C4)nc(OC4CCCC4)n3)CC2)cn1 [Example 193] | 
 | 0.0337 | O=C(c1ccncc1)N1CCC(Nc2cc(C(=O)N3CC[C@@H](N4CCc5ccccc5C4)[C@H](O)C3)ncn2)CC1 [Example 165] | 
 | 0.0653 | CC(=O)N1CCC(Nc2cc(C(=O)N3CC[C@@H](N4CCc5ccccc5C4)[C@H](O)C3)nc(Nc3ccccc3)n2)CC1 [Example 339] | 
 | 0.0115 | Cc1ccc(C(=O)N2CCC(Nc3cc(C(=O)N4CC[C@@H](N5CCc6ccccc6C5)[C@H](O)C4)ncn3)CC2)cc1 [Example 171] | 
 | 1.19 | CN(C)CCCOc1nc(NC2COC2)cc(C(=O)N2CC[C@@H](N3CCc4ccccc4C3)[C@H](O)C2)n1 [Example 259] | 
0.0045 | 0.011 | O=C(c1cc(NC2CCN(C(=O)c3cccs3)CC2)nc(OC2CCCC2)n1)N1CC[C@@H](N2CCc3ccccc3C2)[C@H](O)C1 [Example 194] | 
